Test results as given in article PMC9331182, “Characterization of a novel recombinant halophilic β-glucosidase of Trichoderma harzianum derived from Hainan mangrove” (BMC Microbiology, 2022).

System: T1, Bgl3HB
T1 construct: pPICZalphaA (alpha-factor secretion) in Komagataella phaffii X33; by primers starts MVNNAA and ends QIQDATP plus C-terminal His6; GH3, GH3-C and Fn3-like domains
Assay: pNP release, OD400, Lineweaver-Burk
Type: biochemical, Trichoderma harzianum
Conditions: pH 4.0, 50 °C, 10 min
Text: pNP release, OD400, Lineweaver-Burk on Bgl3HB

O=[N+]([O-])c1ccc(O[C@@H]2O[C@H](CO)[C@@H](O)[C@H](O)[C@H]2O)cc1 [pNPG]
Km: 1220 µM
